The test system of experiment [1] is smooth muscle cell (SMC). The settings on record: literature; cited from earlier work.
For experiment [2] the following is noted: literature (Reilly 1993); cited from earlier work.
In experiment [3] the test system is endothelial cell. The following applies: literature (Castellot 1987); cited from earlier work.
The subject of experiment [4] is Porcine Smooth Muscle Cell. In words: Porcine smooth muscle cell antiproliferation, 3H thymidine incorporation. The following applies: Sus scrofa, growth factor or serum stimulated, 24-36 h at 37° C., compound added with 3H thymidine and serum / growth factor. The experiment is classed as cell-based. The procedure: Effects of Compounds on Cell Proliferation Using ^3 H Thymidine Incorporation
Human and porcine smooth muscle cells were tested in early passage (generally passage 3-7) at sub-confluent conditions. Cultures were grown in 16 mm (24 well) multi-well culture dishes in medium 199 supplemented with 10% fetal bovine serum and 2% antibiotic / antimycotic. At sub-confluence, the cells were placed in a defined serum free medium (AIM-V; Gibco) for 24-48 h prior to initiating the experimental protocol.
Compounds were added to each well at 50 fold dilution (20 AL / well) and the plates were incubated for 24-36 h at 37° C. in 5% CO2. Compounds were initially dissolved in 50% ethanol and serially diluted into media. Compounds were routinely evaluated at concentrations from 1 to 100 μM. As a control, grade II porcine intestinal mucosal heparin (sodium salt) was routinely evaluated in all cell preparations at concentrations from 0.1 to 100 μg/mL.
At the completion of the test procedure, plates were placed on ice, washed three times with ice cold phosphate buffered saline (PBS) and incubated in ice cold 10% trichloroacetic acid (TCA) got 30 min to remove acid soluble proteins. Solution was transferred to scintillation vials containing 0.4 N HCl (500 μL/ vial to neutralize NaOH) and each well was rinsed two times with water (500 μL) for a total volume of 2 mL / vial.
Data was obtained, in triplicate, for both control and experimental samples. Control (100%) data was obtained from maximally stimulated cells, as the result of growth factor or serum stimulation. Experimental data was obtained from cells maximally stimulated with growth factor or serum and treated with compound. Data are expressed as an IC50 in Table I below.

As to β-cyclodextrin tetradecasulfate, the “inhibition of SMC proliferation” value in experiment [1] is given as “smooth muscle cell proliferation inhibitor”. For the same compound, the inhibition of restenosis result in experiment [2] was “effective inhibitor of restenosis”. In the case of heparin, the “inhibition of SMC proliferation” value in experiment [1] is reported as “endogenous inhibitors of SMC proliferation”. Further, the endothelial cell growth entry in experiment [3] is recorded as “able to promote endothelial cell growth”. The term IC50 denotes the midpoint of a concentration-inhibition curve. As for `CC(=O)Nc1cc(CO[C@@H]2O[C@H](CN3C(=O)c4ccccc4C3=O)[C@@H](O[C@H]3O[C@@H]4COC(c5ccccc5)O[C@H]4[C@H](OC(C)=O)[C@H]3OC(C)=O)[C@H](OC(C)=O)[C@H]2OC(C)=O)ccc1Cl` (stereo partly drawn) [Example 6, N-(5-{[2,2',3,3'-Tetra-O-acetyl-4',6'-O-benzylidene-6-deoxy-6-(1,3-dioxo-1,3-dihydro-isoindol-2-yl)-β-D-maltosyl]-oxy-methyl}2-chloro-phenyl)-acetamide], 840 nM corresponded to half-maximal inhibition in experiment [4] (IC50).

As for heparan sulfate, the “inhibition of SMC proliferation” value in experiment [1] was “endogenous inhibitors of SMC proliferation”. Besides, the endothelial cell growth result in experiment [3] is recorded as “able to promote endothelial cell growth”. As for `CC(=O)Nc1cc(CO[C@@H]2O[C@H](CI)[C@@H](O[C@H]3O[C@@H]4COC(c5ccccc5)O[C@H]4[C@H](O)[C@H]3O)[C@H](O)[C@H]2O)ccc1Cl` (stereo partly drawn) [Example 5, N-{5-[(4',6',-O-Benzylidene-6-deoxy-6-iodo-β-D-maltosyl)-oxy-methyl]-2-chloro-phenyl}-acetamide], the IC50 in experiment [4] turned out to be 1160 nM. `CC(=O)Nc1cc(CO[C@@H]2O[C@H](Cn3cnc([N+](=O)[O-])c3)[C@@H](O[C@H]3O[C@@H]4COC(c5ccccc5)O[C@H]4[C@H](OC(C)=O)[C@H]3OC(C)=O)[C@H](OC(C)=O)[C@H]2OC(C)=O)ccc1Cl` (stereo partly drawn) [Example 2, N-(5-{[2,3,2',3'-Tetra-O-acetyl-4',6'-O-benzylidene-6-deoxy-6-(4-nitro-1 H-imidazol-1-yl)-β-D-maltosyl]-oxy-methyl}-2-chloro-phenyl)-acetamide]: in experiment [4], it took 807 nM to reach half-maximal inhibition (IC50). In experiment [4], `CC(=O)Nc1cc(CO[C@@H]2O[C@H](CI)[C@@H](O[C@H]3O[C@@H]4COC(c5ccccc5)O[C@H]4[C@H](OC(C)=O)[C@H]3OC(C)=O)[C@H](OC(C)=O)[C@H]2OC(C)=O)ccc1Cl` (stereo partly drawn) [Example 4, N-{5-[(2,2',3,3'-Tetra-O-acetyl-4',6',-O-benzylidene-6-deoxy-6-iodo-β-D-maltosyl)-oxy-methyl]-2-chloro-phenyl}-acetamide] gave an IC50 of 200 nM. For the compound `CC(=O)Nc1cc(CO[C@@H]2O[C@H](Cn3cnc([N+](=O)[O-])c3)[C@@H](O[C@H]3O[C@@H]4COC(c5ccccc5)O[C@H]4[C@H](O)[C@H]3O)[C@H](O)[C@H]2O)ccc1C` (stereo partly drawn) [Example 1, N-(5-{[4',6'-O-Benzylidene-6-deoxy-6-(4-nitro-1H-imidazol-1-yl)-β-D-maltosyl-oxy]-methyl}-2-methyl-phenyl)-acetamide], the IC50 in experiment [4] was 11000 nM. Regarding `CC(=O)Nc1cc(CO[C@@H]2O[C@H](CN=[N+]=[N-])[C@@H](O[C@H]3O[C@@H]4COC(c5ccccc5)O[C@H]4[C@H](O)[C@H]3O)[C@H](O)[C@H]2O)ccc1Cl` (stereo partly drawn) [Example 8, N-{5-[(6-Deoxy-6-azido-4',6'-O-benzylidene-β-D-maltosyl)-oxy-methyl]-2-chloro-phenyl}-acetamide], half-maximal inhibition in experiment [4] (IC50) required 614 nM. `CC(=O)Nc1cc(CO[C@@H]2O[C@H](CN3C(=O)c4ccccc4C3=O)[C@@H](O[C@H]3O[C@@H]4COC(c5ccccc5)O[C@H]4[C@H](O)[C@H]3O)[C@H](O)[C@H]2O)ccc1Cl` (stereo partly drawn) [Example 7, N-(5-{[4',6'-O-Benzylidene-6-deoxy-6-(1,3-dioxo-1,3-dihydro-isoindol-2-yl)-β-D-maltosyl]-oxy-methyl}-2-chloro-phenyl)-acetamide]: the IC50 in experiment [4] is 1590 nM. The same measure, in the same setting: next, `CC(=O)Nc1cc(CO[C@@H]2O[C@H](Cn3cnc([N+](=O)[O-])c3)[C@@H](O[C@H]3O[C@@H]4COC(c5ccccc5)O[C@H]4[C@H](O)[C@H]3O)[C@H](O)[C@H]2O)ccc1Cl` (stereo partly drawn) [Example 3, N-(5-{[4',6'-O-Benzylidene-6-deoxy-6-(4-nitro-1H-imidazol-1-yl)-β-D-maltosyl]-oxy-methyl}-2-chloro-phenyl)-acetamide]: 1850 nM.

The values above are taken from patent US6187755A, “Benzylmaltosides as inhibitors of smooth muscle cell proliferation” (American Home Products Corporation, priority 1999, dated 2001).
